Data: US11891359B2, “Prenylated psilocybin derivatives and methods of using” (ENVERIC B[…] INC., priority 2021, dated 2024)

Key:
[1] = biological target: T1, 5-HT1A receptor (Homo sapiens, UniProt P08908); assay: cAMP-Glo assay in +5-HT1A cells (CHO-K1/5-HT1A/Gα15) with 4 μM forskolin; format: cell-based; conditions: for cAMP / luminescence response to varying dosage of test molecule: +5HT1A cell cultures, fixed 4 μM forskolin, FIGS. 14H-14L
T1 construct: host or cells: CHO-K1 (co-expressing Gα15)
T1 sequence (P08908 1-422): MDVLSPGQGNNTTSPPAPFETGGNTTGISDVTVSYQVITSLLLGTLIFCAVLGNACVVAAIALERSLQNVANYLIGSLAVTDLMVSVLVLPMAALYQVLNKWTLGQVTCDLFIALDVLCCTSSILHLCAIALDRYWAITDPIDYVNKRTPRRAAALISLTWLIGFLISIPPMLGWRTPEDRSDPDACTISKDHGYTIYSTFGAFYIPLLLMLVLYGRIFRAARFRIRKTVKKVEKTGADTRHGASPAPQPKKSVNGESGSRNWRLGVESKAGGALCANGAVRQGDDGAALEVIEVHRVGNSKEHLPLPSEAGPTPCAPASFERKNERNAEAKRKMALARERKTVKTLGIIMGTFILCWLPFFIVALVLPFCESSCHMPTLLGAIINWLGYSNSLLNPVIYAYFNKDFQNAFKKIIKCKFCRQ
Description: (§1) CHO-K1/Gα15 (GenScript, M00257) (−5-HT1A) and CHO-K1/5-HT1A/Gα15 (GenScript, M00330) (+5-HT1A) cells lines were used. Briefly, CHO-K1/Gα15 is a control cell line that constitutively expresses Gα15 which is a promiscuous Gq protein. This control cell line lacks any transgene encoding 5-HT1A receptors, but still responds to forskolin; thus, cAMP response to forskolin should be the same regardless of whether or not 5-HT1A agonists are present. Conversely, CHO-K1/5-HT1A/Gα15 cells stably express 5-HT1A receptor in the CHO-K1 host background. […] In+5-HT1A cells, Gα15 may be recruited in place of Gαi/o, which could theoretically dampen cAMP response (Rojas and Fiedler 2016, Front Cell Neurosci 10: 272). […] Cells were maintained in complete growth media as recommended by supplier (GenScript) which is constituted as follows: Ham's F12 Nutrient mix (HAM's F12, GIBCO #11765-047) with 10% fetal bovine serum (FBS) (Thermo Scientific #12483020), 200 μg/ml zeocin (Thermo Scientific #R25005) and/or 100 μg/ml hygromycin (Thermo Scientific #10687010). The cells were cultured in a humidified incubator with 37° C. and 5% CO2. Cells maintenance was carried out as recommended by the cell supplier. Briefly, vials with cells were removed from the liquid nitrogen and thawed quickly in 37° C. water bath. Just before the cells were completely thawed the vial's outside was decontaminated by 70% ethanol spray. The cell suspension was then retrieved from the vial and added to warm (37° C.) complete growth media, and centrifuged at 1,000 rpm for 5 minutes. The supernatant was discarded, and the cell pellet was then resuspended in another 10 ml of complete growth media, and added to the 10 cm cell culture dish (Greiner Bio-One #664160). The media was changed every third day until the cells were about 90% confluent. The ˜90% confluent cells were then split 10:1 for maintenance or used for experiment.
As 5-HT1A activation inhibits cAMP formation, the agonist activity of test molecules on 5-HT1A was measured via the reduction in the levels of cAMP produced due to application of 4 μM forskolin. The change in intracellular cAMP levels due to the treatment of novel molecules was measured using cAMP-Glo Assay kit (Promega #V1501). Briefly, +5-HT1A cells were seeded on 1-6 columns and base −5-HT1A cells were seeded on columns 7-12 of the white walled clear bottom 96-well plate (Corning, #3903). Both cells were seeded at the density of 30,000 cells/well in 100 μl complete growth media and cultured 24 hrs in humidified incubator at 37° C. and 5% CO2. On the experiment day, the media of cells was replaced with serum/antibiotic free culture media. […] Reduced ATP caused reduced conversion of luciferin to oxyluciferin, conferring diminished luminescence as the result of 5-HT1A activation. […]

[2] = biological target: T2, 5-HT2A receptor (Homo sapiens, UniProt P28223); assay: [3H]ketanserin competition binding assay (Scintillation Proximity Assay) on membranes containing 5-HT2A; conditions: fixed 1 nM [3H]ketanserin; for competition binding curve result (binding / no binding): psilocin 30 pM to 10 μM, tryptophan 3 nM to 1 mM, FIGS. 14C, 14D
T2 construct: purchased PerkinElmer ES-313-M400UA
T2 sequence (P28223 whole entry): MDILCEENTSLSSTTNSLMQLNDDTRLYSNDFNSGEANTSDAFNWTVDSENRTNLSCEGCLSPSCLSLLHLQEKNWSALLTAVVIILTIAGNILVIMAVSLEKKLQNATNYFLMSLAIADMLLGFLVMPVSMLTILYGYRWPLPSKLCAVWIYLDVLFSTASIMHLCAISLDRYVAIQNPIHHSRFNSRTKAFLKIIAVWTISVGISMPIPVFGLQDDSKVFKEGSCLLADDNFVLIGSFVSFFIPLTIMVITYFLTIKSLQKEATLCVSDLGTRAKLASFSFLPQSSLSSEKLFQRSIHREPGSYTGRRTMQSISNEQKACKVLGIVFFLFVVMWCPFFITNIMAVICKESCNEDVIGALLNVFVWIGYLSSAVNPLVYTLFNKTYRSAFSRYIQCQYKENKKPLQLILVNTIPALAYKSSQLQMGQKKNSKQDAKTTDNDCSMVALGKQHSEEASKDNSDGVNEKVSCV
Description: Evaluation of drug binding is an essential step to characterization of all drug-target interactions (Fang 2012, Exp Opin Drug Discov 7:969). The binding affinity of a drug to a target is traditionally viewed as an acceptable surrogate of its in vivo efficacy (Núñez et al., 2012, Drug Disc Today 17: 10). Competition assays, also called displacement or modulation binding assays, are a common approach to measure activity of a ligand at a target receptor (Flanagan 2016, Methods Cell Biol 132: 191). In these assays, standard radioligands acting either as agonists or antagonists are ascribed to specific receptors. In the case of G protein-coupled receptor 5-HT2A, [^3H]ketanserin is a well-established antagonist used routinely in competition assays to evaluate competitive activity of novel drug candidates at the 5-HT2A receptor (Maguire et al., 2012, Methods Mol Biol 897: 31). Thus, to evaluate activity of novel psilocybin derivatives at the 5-HT2A receptor, competition assays using [^3H]ketanserin were employed as follows. SPA beads (RPNQ0010), [^3H] ketanserin (NET1233025UC), membranes containing 5-HT2A (ES-313-M400UA), and isoplate-96 microplate (6005040) were all purchased from PerkinElmer. Radioactive binding assays were carried out using Scintillation Proximity Assay (SPA). […] After incubation, the samples were read on a MicroBeta 2 Microplate Counter (Perkin Elmer). […] Equilibrium binding constants for ketanserin (Kd) were determined from saturation binding curves using the ‘one-site saturation binding analysis’ method of GraphPad PRISM software (Version 9.2.0). […] Ki values were calculated from the competition displacement data using the competitive binding analysis from GraphPad PRISM software. […] Specific binding in counts per minute (cpm) was calculated by subtracting non-specific binding from total binding. Specific binding (pmol/mg) was calculated from pmol of [^3H]ketanserin bound per mg of protein in the assay. The Kd was calculated by fitting the data with the one-site binding model of PRISM software (version 9.2.0). […]

[3] = test system: CHO-K1/Gα15 (−5-HT1A) cells; assay: cAMP-Glo assay in −5-HT1A control cells (CHO-K1/Gα15) with 4 μM forskolin; format: cell-based; conditions: for trend of % cAMP levels with decreasing dosage of test molecule: −5HT1A cell cultures, fixed 4 μM forskolin
Description: as §1, with “The supernatant was discarded, and the cell pellet was then resuspended in another 10 ml of complete growth media, and added to the 10 cm cell culture dish (Greiner Bio-One #664160). The media was changed every third day until the cells were about 90% confluent. The ˜90% confluent cells were then split 10:1 for maintenance or used for experiment.” left out
As 5-HT1A activation inhibits cAMP formation, the agonist activity of test molecules on 5-HT1A was measured via the reduction in the levels of cAMP produced due to application of 4 μM forskolin. The change in intracellular cAMP levels due to the treatment of novel molecules was measured using cAMP-Glo Assay kit (Promega #V1501). […] Reduced ATP caused reduced conversion of luciferin to oxyluciferin, conferring diminished luminescence as the result of 5-HT1A activation. […]

How did the “cAMP / luminescence response to varying dosage of test molecule” value [1] turn out when CN(C)CCc1c[nH]c2ccccc12 [DMT, reference compound] was run?
The value was 5-HT1A activity.

With CC(=O)NCCc1c[nH]c2cc(CC=C(C)C)ccc12 [compound (IV)] as the compound, how does the “modulation of the impact of serotonin on cAMP / luminescence” value ([1]; +5-HT1A cell cultures, fixed 4 μM forskolin and 10 uM serotonin, FIGS. 14M, 14N) read?
Its value is “modulated by the presence of compound (IV) in a concentration-dependent manner”.

What about the “cAMP / luminescence response to varying dosage of test molecule” value [1] of the same compound?
The value was 5-HT1A modulation activity.

And the “specific binding of [3H]ketanserin in competition with test compound” value ([2]; unlabeled test compound 3 nM to 1 mM, competition not complete, FIGS. 14E, 14F)?
The value was ~50%.

What about the “modulation of the impact of serotonin on cAMP / luminescence” value ([3]; −5-HT1A cell cultures, fixed 4 μM forskolin and 10 uM serotonin, FIGS. 14M, 14N) of the same compound?
The value was “not notable”.

And the “trend of % cAMP levels with decreasing dosage of test molecule” value [3]?
The value was “not observed”.

For CN(C)CCc1c[nH]c2cccc(O)c12 [psilocin], which “competition binding curve result (binding / no binding)” value [2] is on record?
The value was “binding”.

What does the source list for NCCc1c[nH]c2ccc(O)cc12 [serotonin, reference compound]?
cAMP / luminescence response to varying dosage of test molecule [1]: 5-HT1A binding activity; trend of % cAMP levels with decreasing dosage of test molecule [3]: not observed

With N[C@@H](Cc1c[nH]c2ccccc12)C(=O)O [tryptophan] as the compound, how does the “competition binding curve result (binding / no binding)” value [2] read?
The value was “no binding”.
